From patent US6432405B1, “Method of inhibiting HIV infection with CD44 and anti-CD44 antibodies” (Duke University, priority 1991, dated 2002)
“Also recorded” adds a separate entry of the source.

What was measured:
[1] = system: HIV-1Ba.L; experiment: HIV-1 infection of human monocytes in vitro (cytopathology/polykaryon formation, supernatant reverse transcriptase); format: cell-based; details: for effect on HIV-1-induced cytopathology and supernatant RT (in words): human monocytes inoculated with HIV-1Ba.L, three weeks of culture
From the text: This aspect of the present invention provides a new method, based on a separate molecular pathway, of blocking HIV infection. The invention is based, at least in part, on Applicants' observation that CD44 (the hyaluronate receptor) facilitates HIV infection/expression in human cells. When this molecule is “blocked”by binding to the anti-CD44 antibody […] or AlG3, there is a 40-80% reduction of HIV infection/expression in normal human monocytes in vitro, as determined by inhibition of monocyte polykaryon formation and expression of viral reverse transcriptase in supernatant medium. […] To determine the importance of other monocyte cellular surface molecules in in vitro infection with HIV-1, the abilities of various murine monoclonal antibodies directed toward different monocyte membrane antigens to influence HIV-1 infection of human monocytes in vitro were determined. Monocytes from normal people were isolated by density gradients, adherence, and washing. Cells were inoculated with HIV-1Ba.L. […] three weeks of culture for reverse transcriptase (RT) activity, and the plates were examined morphologically. Antibodies AlG3 and […]

[2] = system: PBMC (T cells); experiment: T cell activation assay: CD2 mAb-stimulated PBMC proliferation; format: cell-based, human; details: compared to the results with CD44 liposomes; data not shown
Protocol: CD44 (A3D8) and control YgGl (P3X63/Ag8) antibodies were conjugated to CNBr-activated SEPHAROSE CL 4B (Pharmacia, Piscataway, N.J.) (3.0 mg IgG/ml gel). HuT 78 T Cell (CD44+) lysate was solubilized from 5×10^9 cells in 50 ml buffer (300 mM NaCl, 10 mM Na2HPO4 pH 7.4, 0.2% NaN3w/v 0.5% NP-40 v/v), 0.01% Tween 80 w/v, 0.2 mM phenylmethylsulfonyl fluoride, and 0.1 mM tosyl L-lysine chloromethyl ketone) (0° C.×30 min), centrifuged (4° C. 3000×g×15 min, 23420 ×g×30 min) filtered, precleared×2 over a P3-SEPHAROSE column, and allowed to bind overnight (4° C.) to A3D8-SEPHAROSE. The column was washed with 5 column volumes equilibration buffer, followed by 5 column volumes of 50 mM Tris, pH 7.4, 0.5% NP-40. NP-40 was exchanged for octyl glucoside (OG) (Sigma, St. Louis, Mo.) by washing with 2 column volumes 50 mM Tris pH 7.4, 1.5% OG w/v. […]
Liposomes were prepared by the method of Mimms et al ((1981) Biochemistry 20:833-840), using 1 μM purified CD44 or control glycophorin protein, 1 nM L-α-dioleoyl lecthin (Avanti Polar Lipids, Birmingham, Ala.), and 240 nM OG. Liposomes were analyzed for content of the appropriate protein using a novel labelling technique and flow cytometry. […] Fluoresceinated liposome-bead conjugates were then analyzed by flow cytometry. […]

Row | Substance | effect on HIV-1-induced cytopathology and supernatant RT (in words) [1] | effect on CD2 stimulated PBMC cultures (in words) [2] | reduction/inhibition of HIV infection/expression ([1]; normal human monocytes in vitro, by inhibition of monocyte polykaryon formation and viral reverse transcriptase in supernatant medium)
1 | Chondroitin sulfate | no effect; also recorded: no or minimal inhibitory activity |  | 
2 | soluble, free CD44 protein: CD44 protein affinity-purified from HuT 78 T cell lysate on A3D8-Sepharose, 80-85 kD |  | Identical results | 
3 | hyaluronic acid [hyaluronate] | diminished morphological changes and RT expression |  | up to 85%
